Data as given in the kinase profiling compilation of Christmann-Franck et al. (2016).

Tests used:
Experiment in all cases: radiometric filter-binding kinase assay, Kinase HotSpot
Settings in all cases: compound 0.5 µM; ATP 10 µM
CDK3 CCNE1 (human) = CDK3 CCNE1 (human) (UniProt Q00526+P24864)
PHKG2 (human) = PHKG2 (human) (UniProt P15735)
MUSK (human) = MUSK (human) (UniProt O15146)
TYRO3 (human) = TYRO3 (human) (UniProt Q06418)
AKT3 (human) = AKT3 (human) (UniProt Q9Y243)
ROS1 (human) = ROS1 (human) (UniProt P08922)
CDK4 CCND1 (human) = CDK4 CCND1 (human) (UniProt P24385+P11802)
PRKG2 (human) = PRKG2 (human) (UniProt Q13237)
PRKX (human) = PRKX (human) (UniProt P51817)
CSNK1G2 (human) = CSNK1G2 (human) (UniProt P78368)
EPHA7 (human) = EPHA7 (human) (UniProt Q15375)
PLK2 (human) = PLK2 (human) (UniProt Q9NYY3)
Sequence of PLK2 (human) (Q9NYY3 whole entry, looked up): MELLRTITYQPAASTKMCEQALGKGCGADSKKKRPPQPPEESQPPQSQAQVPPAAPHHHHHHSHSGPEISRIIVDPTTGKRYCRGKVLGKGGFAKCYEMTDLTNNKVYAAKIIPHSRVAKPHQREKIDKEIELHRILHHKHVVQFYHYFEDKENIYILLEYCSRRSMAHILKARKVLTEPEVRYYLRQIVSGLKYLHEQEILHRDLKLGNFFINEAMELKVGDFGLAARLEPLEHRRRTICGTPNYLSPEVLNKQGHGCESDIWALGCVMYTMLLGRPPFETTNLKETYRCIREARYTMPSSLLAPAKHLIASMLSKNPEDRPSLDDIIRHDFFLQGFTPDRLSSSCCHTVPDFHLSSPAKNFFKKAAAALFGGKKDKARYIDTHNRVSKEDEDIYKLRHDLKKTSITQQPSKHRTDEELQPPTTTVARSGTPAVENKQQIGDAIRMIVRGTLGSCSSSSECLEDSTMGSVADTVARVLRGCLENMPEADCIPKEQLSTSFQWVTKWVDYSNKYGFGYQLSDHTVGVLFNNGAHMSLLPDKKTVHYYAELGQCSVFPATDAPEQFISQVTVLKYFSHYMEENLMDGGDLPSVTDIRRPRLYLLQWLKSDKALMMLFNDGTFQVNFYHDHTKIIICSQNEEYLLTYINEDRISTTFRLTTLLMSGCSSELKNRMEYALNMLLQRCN

MAP3K5 (human) = MAP3K5 (human) (UniProt Q99683)
EPHB2 (human) = EPHB2 (human) (UniProt P29323)
ACVRL1 (human) = ACVRL1 (human) (UniProt P37023)
Sequence of ACVRL1 (human) (P37023 whole entry, looked up): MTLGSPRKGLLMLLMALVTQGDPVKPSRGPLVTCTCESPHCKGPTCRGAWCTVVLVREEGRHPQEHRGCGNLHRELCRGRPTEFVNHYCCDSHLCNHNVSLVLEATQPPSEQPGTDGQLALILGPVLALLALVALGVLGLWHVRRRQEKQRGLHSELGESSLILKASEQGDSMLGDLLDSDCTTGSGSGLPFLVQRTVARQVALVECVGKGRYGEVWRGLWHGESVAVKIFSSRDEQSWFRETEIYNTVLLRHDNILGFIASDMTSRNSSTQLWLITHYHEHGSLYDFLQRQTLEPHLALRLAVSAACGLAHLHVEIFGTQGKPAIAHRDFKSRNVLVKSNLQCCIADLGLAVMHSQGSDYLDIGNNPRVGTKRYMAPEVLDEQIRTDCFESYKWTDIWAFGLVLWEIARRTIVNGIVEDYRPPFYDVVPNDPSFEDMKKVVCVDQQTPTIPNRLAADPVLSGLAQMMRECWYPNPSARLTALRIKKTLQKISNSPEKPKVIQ

EPHA8 (human) = EPHA8 (human) (UniProt P29322)
Sequence of EPHA8 (human) (P29322 whole entry, looked up): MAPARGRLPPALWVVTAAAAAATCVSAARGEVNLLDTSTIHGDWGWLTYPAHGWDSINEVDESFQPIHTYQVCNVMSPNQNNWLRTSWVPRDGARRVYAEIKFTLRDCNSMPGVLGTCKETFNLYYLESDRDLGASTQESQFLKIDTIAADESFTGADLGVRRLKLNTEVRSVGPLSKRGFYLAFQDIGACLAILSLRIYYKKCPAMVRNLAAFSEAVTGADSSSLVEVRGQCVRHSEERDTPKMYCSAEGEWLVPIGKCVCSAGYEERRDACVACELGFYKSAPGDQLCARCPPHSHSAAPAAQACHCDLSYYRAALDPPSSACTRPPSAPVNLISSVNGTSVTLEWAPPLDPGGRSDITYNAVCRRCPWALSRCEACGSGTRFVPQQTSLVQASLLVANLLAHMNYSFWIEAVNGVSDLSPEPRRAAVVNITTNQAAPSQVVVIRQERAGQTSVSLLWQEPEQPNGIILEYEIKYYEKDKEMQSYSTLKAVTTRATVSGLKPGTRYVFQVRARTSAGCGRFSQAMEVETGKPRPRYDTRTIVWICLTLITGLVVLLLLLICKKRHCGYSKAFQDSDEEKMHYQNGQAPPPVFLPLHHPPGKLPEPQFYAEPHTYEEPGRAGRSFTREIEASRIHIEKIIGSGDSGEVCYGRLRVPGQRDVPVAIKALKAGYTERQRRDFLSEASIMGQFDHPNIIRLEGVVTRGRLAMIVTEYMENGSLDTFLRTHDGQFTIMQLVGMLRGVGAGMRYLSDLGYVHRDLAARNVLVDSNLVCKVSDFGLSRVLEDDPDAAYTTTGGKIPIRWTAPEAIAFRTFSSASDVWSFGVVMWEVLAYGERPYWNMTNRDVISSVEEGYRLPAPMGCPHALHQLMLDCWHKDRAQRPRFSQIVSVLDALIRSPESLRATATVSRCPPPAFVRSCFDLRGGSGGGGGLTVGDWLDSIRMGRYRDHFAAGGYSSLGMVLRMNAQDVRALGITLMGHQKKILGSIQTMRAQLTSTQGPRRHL

CSF1R (human) = CSF1R (human) (UniProt P07333)
MARK2 (human) = MARK2 (human) (UniProt Q7KZI7)
Sequence of MARK2 (human) (Q7KZI7 whole entry, looked up): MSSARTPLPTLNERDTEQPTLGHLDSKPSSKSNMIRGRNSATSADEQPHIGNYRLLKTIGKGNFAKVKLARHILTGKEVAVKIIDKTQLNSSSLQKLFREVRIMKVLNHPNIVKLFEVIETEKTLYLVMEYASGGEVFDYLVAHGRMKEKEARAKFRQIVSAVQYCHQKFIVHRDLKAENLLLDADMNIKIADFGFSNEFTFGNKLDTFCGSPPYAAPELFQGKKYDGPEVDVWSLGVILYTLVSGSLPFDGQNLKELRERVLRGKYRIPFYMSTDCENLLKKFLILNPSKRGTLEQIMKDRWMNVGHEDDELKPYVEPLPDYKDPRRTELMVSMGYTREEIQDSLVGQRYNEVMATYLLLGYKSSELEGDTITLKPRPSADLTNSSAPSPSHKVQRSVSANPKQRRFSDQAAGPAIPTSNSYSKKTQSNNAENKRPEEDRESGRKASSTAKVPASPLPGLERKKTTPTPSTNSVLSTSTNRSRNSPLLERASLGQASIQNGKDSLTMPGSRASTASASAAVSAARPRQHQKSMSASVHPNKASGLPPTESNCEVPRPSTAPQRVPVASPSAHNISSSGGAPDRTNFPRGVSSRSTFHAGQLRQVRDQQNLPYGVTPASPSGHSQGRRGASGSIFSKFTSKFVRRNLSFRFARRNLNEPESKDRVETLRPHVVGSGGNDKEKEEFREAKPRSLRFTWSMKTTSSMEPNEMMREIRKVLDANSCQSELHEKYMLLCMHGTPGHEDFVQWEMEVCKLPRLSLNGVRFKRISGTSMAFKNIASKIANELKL

CHEK2 (human) = CHEK2 (human) (UniProt O96017)
CSNK2A2 (human) = CSNK2A2 (human) (UniProt P19784)
CDK2 CCNA2 (human) = CDK2 CCNA2 (human) (UniProt P24941+P20248)
[1] = tested on: MAP2K6 (human), P52564 [S207E/T211E]
Sequence of MAP2K6 (human), P52564 [S207E/T211E] (P52564 whole entry S207E/T211E, looked up): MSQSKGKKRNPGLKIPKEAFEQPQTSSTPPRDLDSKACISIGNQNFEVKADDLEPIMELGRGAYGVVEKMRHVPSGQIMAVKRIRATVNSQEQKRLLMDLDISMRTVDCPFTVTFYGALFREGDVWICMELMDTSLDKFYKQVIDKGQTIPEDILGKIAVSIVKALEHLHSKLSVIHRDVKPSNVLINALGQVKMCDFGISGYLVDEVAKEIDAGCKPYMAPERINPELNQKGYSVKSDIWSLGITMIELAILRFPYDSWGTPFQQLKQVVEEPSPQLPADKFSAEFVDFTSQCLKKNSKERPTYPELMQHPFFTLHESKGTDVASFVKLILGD

CAMK4 (human) = CAMK4 (human) (UniProt Q16566)
TGFBR1 (human) = TGFBR1 (human) (UniProt P36897)
MAPK1 (human) = MAPK1 (human) (UniProt P28482)
TAOK1 (human) = TAOK1 (human) (UniProt Q7L7X3)
Sequence of TAOK1 (human) (Q7L7X3 whole entry, looked up): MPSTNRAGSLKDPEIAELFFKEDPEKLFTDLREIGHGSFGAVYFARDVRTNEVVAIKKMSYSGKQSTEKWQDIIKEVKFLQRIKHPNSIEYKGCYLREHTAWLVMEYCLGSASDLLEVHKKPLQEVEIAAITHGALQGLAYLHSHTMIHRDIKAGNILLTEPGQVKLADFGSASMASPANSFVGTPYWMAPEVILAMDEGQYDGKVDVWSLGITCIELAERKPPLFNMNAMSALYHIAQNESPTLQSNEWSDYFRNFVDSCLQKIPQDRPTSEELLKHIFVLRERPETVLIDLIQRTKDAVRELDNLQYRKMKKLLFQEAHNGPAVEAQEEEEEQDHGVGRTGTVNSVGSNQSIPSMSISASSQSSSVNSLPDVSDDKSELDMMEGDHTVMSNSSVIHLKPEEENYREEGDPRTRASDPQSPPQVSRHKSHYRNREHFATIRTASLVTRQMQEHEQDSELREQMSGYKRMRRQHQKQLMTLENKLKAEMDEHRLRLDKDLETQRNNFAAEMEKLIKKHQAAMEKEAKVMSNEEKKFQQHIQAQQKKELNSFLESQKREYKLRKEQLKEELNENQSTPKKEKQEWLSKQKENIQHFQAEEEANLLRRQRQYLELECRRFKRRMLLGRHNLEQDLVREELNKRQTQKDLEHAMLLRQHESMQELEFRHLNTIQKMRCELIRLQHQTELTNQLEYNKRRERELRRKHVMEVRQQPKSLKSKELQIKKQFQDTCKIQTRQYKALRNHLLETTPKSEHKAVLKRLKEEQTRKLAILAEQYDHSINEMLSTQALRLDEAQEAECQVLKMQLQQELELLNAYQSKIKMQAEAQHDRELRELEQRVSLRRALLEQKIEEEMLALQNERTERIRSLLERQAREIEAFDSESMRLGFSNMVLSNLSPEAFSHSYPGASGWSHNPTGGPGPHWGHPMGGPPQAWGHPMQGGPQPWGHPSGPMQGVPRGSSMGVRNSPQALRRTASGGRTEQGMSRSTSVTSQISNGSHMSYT

RPS6KA2 KD1 KD2 (human) = RPS6KA2 KD1 KD2 (human) (UniProt Q15349)
CLK4 (human) = CLK4 (human) (UniProt Q9HAZ1)
DYRK3 (human) = DYRK3 (human) (UniProt O43781)
IRAK1 (human) = IRAK1 (human) (UniProt P51617)
SRMS (human) = SRMS (human) (UniProt Q9H3Y6)
ULK1 (human) = ULK1 (human) (UniProt O75385)
PAK3 (human) = PAK3 (human) (UniProt O75914)
PBK (human) = PBK (human) (UniProt Q96KB5)
TEK (human) = TEK (human) (UniProt Q02763)
FER (human) = FER (human) (UniProt P16591)
NUAK1 (human) = NUAK1 (human) (UniProt O60285)
STK39 (human) = STK39 (human) (UniProt Q9UEW8)
CDK1 CCNB1 (human) = CDK1 CCNB1 (human) (UniProt P06493+P14635)
PAK7 (human) = PAK7 (human) (UniProt Q9P286)
Sequence of PAK7 (human) (Q9P286 whole entry, looked up): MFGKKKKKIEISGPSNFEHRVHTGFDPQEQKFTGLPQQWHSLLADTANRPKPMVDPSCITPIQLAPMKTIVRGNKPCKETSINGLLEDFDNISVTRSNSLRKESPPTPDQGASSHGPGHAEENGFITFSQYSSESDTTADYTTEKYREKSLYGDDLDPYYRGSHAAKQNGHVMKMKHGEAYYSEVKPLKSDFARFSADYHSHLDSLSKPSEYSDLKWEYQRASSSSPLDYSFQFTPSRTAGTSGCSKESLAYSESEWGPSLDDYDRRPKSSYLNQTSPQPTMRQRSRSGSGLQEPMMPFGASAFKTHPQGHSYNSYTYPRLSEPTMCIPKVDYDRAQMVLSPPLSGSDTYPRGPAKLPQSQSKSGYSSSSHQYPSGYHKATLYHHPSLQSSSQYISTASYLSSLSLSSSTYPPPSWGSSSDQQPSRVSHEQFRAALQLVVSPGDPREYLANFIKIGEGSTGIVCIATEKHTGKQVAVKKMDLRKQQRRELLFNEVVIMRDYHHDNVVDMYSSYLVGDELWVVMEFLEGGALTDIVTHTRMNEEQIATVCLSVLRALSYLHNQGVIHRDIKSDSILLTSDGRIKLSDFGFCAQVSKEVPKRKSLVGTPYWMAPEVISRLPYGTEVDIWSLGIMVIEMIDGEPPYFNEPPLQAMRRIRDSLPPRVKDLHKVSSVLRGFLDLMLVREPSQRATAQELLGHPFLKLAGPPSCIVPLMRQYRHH

CC(C)(C)c1cc(C=C(C#N)C#N)cc(Br)c1O
residual activity (CDK3 CCNE1 (human)): 98.9%
residual activity (PHKG2 (human)): 106%
residual activity (MUSK (human)): 103%
residual activity (TYRO3 (human)): 110%
residual activity (AKT3 (human)): 111%
residual activity (ROS1 (human)): 93.2%
residual activity (CDK4 CCND1 (human)): 115%
residual activity (PRKG2 (human)): 87.6%
residual activity (PRKX (human)): 102%
residual activity (CSNK1G2 (human)): 100%
residual activity (EPHA7 (human)): 107%
residual activity (PLK2 (human)): 92.6%
residual activity (MAP3K5 (human)): 100%
residual activity (EPHB2 (human)): 100%
residual activity (ACVRL1 (human)): 105%
residual activity (EPHA8 (human)): 100%
residual activity (CSF1R (human)): 96.8%
residual activity (MARK2 (human)): 81.6%
residual activity (CHEK2 (human)): 104%
residual activity (CSNK2A2 (human)): 94.5%
residual activity (CDK2 CCNA2 (human)): 90.7%
residual activity [1]: 107%
residual activity (CAMK4 (human)): 94.2%
residual activity (TGFBR1 (human)): 103%
residual activity (MAPK1 (human)): 91.3%
residual activity (TAOK1 (human)): 97.9%
residual activity (RPS6KA2 KD1 KD2 (human)): 98.9%
residual activity (CLK4 (human)): 88.6%
residual activity (DYRK3 (human)): 102%
residual activity (IRAK1 (human)): 105%
residual activity (SRMS (human)): 98.4%
residual activity (ULK1 (human)): 88.2%
residual activity (PAK3 (human)): 96.9%
residual activity (PBK (human)): 102%
residual activity (TEK (human)): 97.9%
residual activity (FER (human)): 100%
residual activity (NUAK1 (human)): 95.4%
residual activity (STK39 (human)): 87.6%
residual activity (CDK1 CCNB1 (human)): 72.6%
residual activity (PAK7 (human)): 119%
